Laboratory results taken from publication PMC12781162, “Human Protein Z as the Second Known Heme‐Binding Protein from the Endogenous Blood Coagulation Inhibitor System” (Chembiochem, 2025).
“And” between values parts separate entries of the source, which are not always exact repeats. Identical values can stand only once. “Also recorded” adds a separate entry of the source. Like-named read-outs stand apart in the source and are kept apart here. Values belong to the molecule of their own block, whether it stands above or below them. No end group written: not given here. Cys(S-Me) = S-methylated cysteine

How the values were obtained:
[1] = UV/vis spectroscopic interaction studies of PZ-derived peptides with heme; type: binding; conditions: peptide 10 µM; for Kd: read-out: K D (heme-binding affinity of peptide); for heme binding on peptide level: heme 0.4-40 µM
Procedure: Heme binding to PZ‐derived peptides 1 –5 was analyzed by UV/vis spectroscopy, as previously reported for other protein‐derived peptides as well.^[ [18] ^, [19] ^, [35] ^, [43] ^, [44] ^] In brief, each peptide (10 µM) was incubated for 30 min with heme in 100 mM HEPES buffer (pH 7.0) for 30 min. Absorbance spectra were recorded in the range of 300–600 nm on a Infinite 200 Pro spectrophotometer. Difference spectra were generated by subtraction of the single absorbance data of heme and the peptide, respectively, from the data of the heme–peptide complex. Difference spectra were plotted with GraphPad Prism, version 10.5.0. K D values were calculated using the equation from Pîrnău and Bogdan (2008).^[ [45] ^]

thrombin [2] = target: T1, thrombin (Homo sapiens, UniProt P00734); experiment: SPR binding of porphyrins to immobilized thrombin; design: human α‐thrombin (HCT‐0020); purchased CellSystems GmbH HCT-0020
Procedure: (§1) SPR experiments were conducted on a Biacore 8K instrument (Cytiva) to investigate the interaction of PZ with heme, as established before.^[ [19] ^, [35] ^, [37] ^, [43] ^] In brief, PZ (10 µg mL^−1) was dissolved in 10 mM sodium acetate buffer (pH 3.5) and immobilized onto a CM5 sensor chip via standard amine coupling, resulting in a final immobilization level of 767 RU. Heme (stock solution in 30 mM NaOH) was further diluted in running buffer (10 mM HEPES, 150 mM NaCl, and 0.05% Tween 20, pH 7.4). The same was performed with zinc (II) protoporphyrin IX and protoporphyrin IX (Frontier Scientific). Binding kinetics were assessed by injecting seven increasing concentrations of heme (187.5–12,000 nM) in a single‐cycle kinetics format at 25 °C and a flow rate of 30 µL min^−1. Data analysis was performed by global fitting using Biacore Insight Evaluation Software, version 3.0.12.15655 (Cytiva).
Figure S7. Heme binds to thrombin. For SPR analysis, thrombin (10 µg/ml) was dissolved in 10 mM sodium acetate buffer (pH 6.0) and immobilized onto a CM5 sensor chip via standard amine coupling, resulting in a final immobilization level of 1826.1 RU. Binding kinetics were assessed by injecting six increasing concentrations of heme (187.5 – 6,000 nM) in a single-cycle kinetics format at 25°C and a flow rate of […]
transient nature of heme binding to thrombin. […]

Human protein Z (PZ) = target: T2, Human protein Z (PZ) (Homo sapiens, UniProt P22891); experiment: SPR binding of porphyrins to immobilized PZ (single-cycle kinetics); conditions: tested concentration range 187.5 nM – 12 µM
T2 construct: purchased CellSystems GmbH HCPZ-0220
Procedure: as §1

thrombin [3] = target: T1, thrombin; conditions: cited from earlier work
ZPI (Homo sapiens) = ZPI (Homo sapiens) (UniProt Q9UK55); conditions: cited from earlier work
ZPI (Homo sapiens), sequence (Q9UK55 22-444): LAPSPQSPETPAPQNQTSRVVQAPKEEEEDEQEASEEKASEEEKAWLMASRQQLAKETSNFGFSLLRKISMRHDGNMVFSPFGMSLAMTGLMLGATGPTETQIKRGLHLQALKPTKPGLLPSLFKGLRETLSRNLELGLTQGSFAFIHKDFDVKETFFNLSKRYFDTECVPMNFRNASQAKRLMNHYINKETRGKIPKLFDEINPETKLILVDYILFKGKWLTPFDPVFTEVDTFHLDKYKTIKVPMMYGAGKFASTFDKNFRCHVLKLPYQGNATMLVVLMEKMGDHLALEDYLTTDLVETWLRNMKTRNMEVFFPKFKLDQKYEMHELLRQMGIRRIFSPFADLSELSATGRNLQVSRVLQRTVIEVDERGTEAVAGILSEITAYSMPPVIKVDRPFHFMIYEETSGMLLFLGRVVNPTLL

[4] = design: method as in PMID 27584039; conditions: read-out: K D (PZ interaction with phospholipid surfaces via Gla domain); cited from earlier work
[5] = target: PZ-dependent protease inhibitor (ZPI); design: method as in PMID 22786881, PMID 24960590; conditions: read-out: K D (PZ interaction with ZPI via peptidase-like domain); cited from earlier work
thrombin [6] = test system: thrombin; design: method as in PMID 2040612; conditions: PZ:thrombin ratios of ≈1:9 to ≈5:1; cited from earlier work
[7] = Substrate control of the chromogenic assay without thrombin; type: biochemical; conditions: no thrombin; heme 1 – 1000 nM, PZ 10 nM; thrombin = 100 %
Procedure: Herein, an earlier established chromogenic thrombin amidolytic activity assay system was thus used, inspired by Hogg and Stenflo.^[ [19] ^, [28] ^] PZ (final concentration: 10 nM) was first incubated for 30 min with different heme concentrations (final concentrations: 1–1000 nM). Afterward, the heme–PZ mixture was incubated with thrombin for 10 min and the PZ–thrombin mixture (50 µL; final thrombin concentration: 15 nM) was transferred onto a 96‐well plate (Greiner Bio‐One GmbH). Finally, 5 µL of the substrate solution (H‐D‐Phe‐Pip‐Arg‐pNA x 2 HCl (S‐2238); final concentration: 273 µM) was added. Immediately, kinetic measurements at 405 nm were started, using an Infinite 200 Pro spectrophotometer. Heme only, thrombin only, and PZ‐heme only served as controls. For evaluation, the thrombin activity was determined as the change of absorbance per second and always normalized against the basal thrombin activity without PZ. Data were analyzed as the mean of triplicate and the IC50 was calculated by nonlinear regression (GraphPad Prism, version 10.5.0). […]
thrombinheme (0 nM)heme (1 nM) thrombin heme (3.16 nM)heme (10 nM)heme (31.6 nM)heme (100 nM)heme (316 nM)heme (1000 nM)PZ+heme (0 nM)PZ+heme (1 nM) PZ+heme (3.16 nM)PZ+heme (10 nM)PZ+heme (31.6 nM)PZ+heme (100 nM)PZ+heme (316 nM)PZ+heme (1000 nM)
Figure S5. […]

PZ = target: T3, PZ (Homo sapiens, UniProt P22891); experiment: aPTT-based one-stage clotting assay: anticoagulant function of PZ against FXa in the presence of heme; type: biochemical
T3 construct: purchased CellSystems GmbH HCPZ-0220 (PZ); HCXA-0060 (FXa)
Procedure: To estimate an effect on molecular level, the structure of the PZ–ZPI complex (PDB: 3H5C^[ [42] ^]) was first inspected with heme attached to PZ. The anticoagulant function of PZ was then analyzed in the presence of heme by a one‐stage clotting assay, which was inspired by previous work from us and others.^[ [19] ^, [27] ^] The aPTT‐based assay was performed with the ball coagulometer KC 4 A (Amelung, Lemgo, Germany). PZ (320 nM) was preincubated with different concentrations of heme (0–100 µM) for 30 min in 1x PBS, pH 7.4. Afterward, 50 µL of the PZ–heme mixture was incubated with 50 µL of Actin FSL, 50 µl CaCl2 (30 mM), and 50 µL FXa (0.5 nM) at 37 °C for 3 min. Finally, 50 µL citrated pooled plasma was added and the clotting time was automatically recorded. The following mixtures served as controls: 1) 50 µL PBS‐heme + 50 µL Actin FSL + 50 µL CaCl2 + 50 µL FXa + 50 µL citrated plasma, 2) 50 µL PBS‐heme + 50 µL Actin FSL + 50 µL CaCl2 + 50 µL PBS + 50 µL citrated plasma, 3) 50 µL PZ–heme + 50 µL Actin FSL + 50 µL CaCl2 + 50 µL PBS + 50 µL citrated plasma, 4) 50 µL PZ‐PBS + 50 µL Actin FSL + 50 µL CaCl2 + 50 µL FXa + 50 µL citrated plasma, 5) 50 µL PZ‐PBS + 50 µL Actin FSL + 50 µL CaCl2 + 50 µL PBS + 50 µL citrated plasma, 6) 50 µL PBS + 50 µL Actin FSL + 50 µL CaCl2 + 50 µL FXa + 50 µL citrated plasma, and 7) 50 µL PBS + 50 µL Actin FSL + 50 µL CaCl2 + 50 µL PBS + 50 µL citrated plasma. Final concentrations in the approach were 6 mM CaCl2, 0–20 µM heme, 32 nM and PZ, 0.1 nM FXa. Data were normalized against the clotting time of citrated plasma only (control (7)) and evaluated as the mean of triplicates. The IC50 was determined by fitting the curves with nonlinear regression (GraphPad Prism, version 10.5.0).

human α-thrombin = test system: T4, human α-thrombin; experiment: Chromogenic thrombin amidolytic activity assay (S-2238); type: biochemical
T4 construct: human α‐thrombin (HCT‐0020); purchased CellSystems GmbH HCT-0020
Procedure: Herein, an earlier established chromogenic thrombin amidolytic activity assay system was thus used, inspired by Hogg and Stenflo.^[ [19] ^, [28] ^] PZ (final concentration: 10 nM) was first incubated for 30 min with different heme concentrations (final concentrations: 1–1000 nM). Afterward, the heme–PZ mixture was incubated with thrombin for 10 min and the PZ–thrombin mixture (50 µL; final thrombin concentration: 15 nM) was transferred onto a 96‐well plate (Greiner Bio‐One GmbH). Finally, 5 µL of the substrate solution (H‐D‐Phe‐Pip‐Arg‐pNA x 2 HCl (S‐2238); final concentration: 273 µM) was added. Immediately, kinetic measurements at 405 nm were started, using an Infinite 200 Pro spectrophotometer. Heme only, thrombin only, and PZ‐heme only served as controls. For evaluation, the thrombin activity was determined as the change of absorbance per second and always normalized against the basal thrombin activity without PZ. Data were analyzed as the mean of triplicate and the IC50 was calculated by nonlinear regression (GraphPad Prism, version 10.5.0).

thrombin [8] = target: thrombin; design: method as in PMID 2040612; conditions: read-out: K D (PZ direct binding to thrombin); cited from earlier work
[9] = 100 mM HEPES pH 7.0, 30 min, stoichiometry 1:1

Molecule: C=CC1=C(C)c2cc3[nH]c(cc4nc(cc5[nH]c(cc1n2)c(C)c5CCC(=O)O)C(CCC(=O)O)=C4C)c(C)c3C=C [protoporphyrin IX]
Kd (thrombin [2]; heterogeneous ligand model, read-out: KD1 (porphyrin binding to thrombin)): 150 nM
Kd (thrombin [2]; read-out: KD2 (porphyrin binding to thrombin)): 2200 nM
binding to PZ (Human protein Z (PZ)): did not bind

Molecule: Protein Z (from UniProt P22891)
Kd (thrombin [3]): 130 nM

Molecule: FWRRYKGGS [Peptide 1]
Kd [1, 9]: 1040 ± 360 nM
heme binding on peptide level [1]: bound heme

Molecule: Protein Z peptidase-like domain (from UniProt P22891)
Kd (ZPI (Homo sapiens)): 1 nM

Molecule: PZ: Human protein Z, vitamin-K-dependent glycoprotein, anticoagulant cofactor; obtained from CellSystems GmbH
Kd [4]: ~48000 nM
Kd [5]: ~1 nM
inhibition of the activity of thrombin in the presence of PZ (thrombin [6]): ≈ 20%
relative amidolytic activity toward substrate S-2238 [7]: ~ 0%
impact alone on the procoagulant function of FXa or on clotting of pure plasma (aPTT) (PZ; controls, heme 0.06 – 20 µM, PZ 32 nM, FXa 0.1 nM): not significantly influenced; also recorded: did not exert any significant impact
effect of PZ on the procoagulant effect of FXa (PZ; without heme): block the procoagulant effect of FXa completely
amidolytic activity of thrombin at highest PZ concentration (human α-thrombin; PZ 1 µM, ratio ≈30:1 PZ:thrombin): ≈ 140%
inhibitory effect toward the amidolytic activity of thrombin (human α-thrombin; PZ:thrombin ratios of 1:15 to 21:1, without heme): ≈ 20% and 20%
remaining amidolytic activity of thrombin (human α-thrombin; PZ:thrombin ratios of 1:30 to ≈10:1, thrombin 30 nM): ≈ 5080%
Kd (thrombin [8]): 110 to 150 nM

More lines, now with the values ahead:

Kd [1, 9]: 1130 ± 500 nM
heme binding on peptide level [1]: bound heme
Molecule: C(Me)SLLHRNITVKTYFNRT ({Cys(S-Me)}-SLLHRNITVKTYFNRT) [Peptide 3, PZ-derived peptide around H183/Y191 with methylated cysteine, positions 179 - 195]

Kd [1, 9]: 790 ± 360 nM
heme binding on peptide level [1]: bound heme
Molecule: IKITHVHVHMRYD [Peptide 4, PZ-derived peptide around H206/H208/H210, positions 202 - 214]

heme binding on peptide level [1]: did not bind heme
Molecule: VTREHRGSW [Peptide 5, PZ-derived peptide around H321, positions 317 - 325]

K D (heme-binding affinity of peptide) [1, 9]: n.b.
heme binding on peptide level [1]: did not bind heme
Molecule: AKNEC(Me)HPERT [Peptide 2]

binding to PZ (Human protein Z (PZ)): did not bind
Molecule: C=CC1=C(C)c2cc3[n-]c(cc4[n-]c(cc5nc(cc1n2)C(C)=C5C=C)c(C)c4CCC(=O)O)c(CCC(=O)O)c3C.[Zn+2] [zinc protoporphyrin IX]
